# Patent US20260218197A1, “EXTRACELLULAR VESICLE SECRETION REDUCING AGENT FOR REDUCING EXTRACELLULAR VESICLE SECRETION, AND USE OF THE SAME” (THEORIA SCIENCE INC., priority 2020, published 2026)
# Tests used:
# [1] = test system: colorectal cancer cells HCT116; test: CD63 immunofluorescence / coimmunostaining (intracellular EV accumulation); assay type: cell-based, human; details: HCT116 transformants
# Method: (§1) Colorectal cancer cells HCT116 and lung cancer cells A549 were transfected with siRNA (siPSAT1) in the same manner as in the item (2) in Example A1, and EV biogenesis after PSAT1 silencing was examined. For the respective silenced transformants, CD63 and PSAT1 were examined by immunofluorescence.
# (§2) Further, coimmunostaining of the EV marker CD63 and also an early endosome marker EEA1 or a late endosome marker Rab7 was conducted for the PSAT1-silenced transformants. As a result, no overlap was observed between EEA1 and CD63 in either the PSAT1-silenced transformants or the negative control transformants. […] On this account, the CD63 single-positive area was measured based on the intensity. […] This confirmed that EVs had accumulated in the cells.
# (§3) Specifically, the test was performed in the following manner. Colorectal cancer cells HCT116 and lung cancer cells A549 were each seeded in a 6-well plate at 1.5×10^5 cells/well (Day 0), and incubated for 24 hours in a medium (DMEM with 10% FBS, 1×anti-anti medium). After the incubation (Day 1), the above-described medium was removed, and thereafter, a serine-deficient medium and an inhibitor solution were added to the wells. The inhibitor solution was prepared by dissolving NCT-503 in DMSO, and the concentration of the inhibitor per well was set to 2.5 μmol/L. Then, after another 48 hours of incubation (Day 3), the medium in the wells was collected and the cells in the wells were counted. As negative controls (NC), the test was performed in the same manner, except that DMSO was added instead of the inhibitor solution.
# (§4) EVs accumulated in the cells were analyzed in the following manner. Specifically, the collected cells were immunostained, the CD63 single-positive area was measured based on the fluorescence intensity, and the fluorescence intensity measured in the area was divided by the number of nuclei to determine the amount of EVs accumulated in each cell. On the other hand, secreted EVs were collected from the collected medium and then subjected to the NTA. In the NTA, the amount of secreted EVs was determined as a relative value calculated assuming that the amount of the secreted EVs in the negative control was 1.
# lung cancer cells A549 [2] = test: as above; assay type: cell-based, human; details: A549 transformants
# Method: as §1, §2, §3, §4
# [3] = test system: colorectal cancer cells HCT116; test: Amount of secreted EVs by the ExoScreen method; assay type: cell-based, human; details: HCT116 transformants, CMs and EV fractions, compared with transformants (NC)
# Method: (§5) EV detection was performed using an AlphaLISA reagent (Perkin Elmer) composed of AlphaScreen streptavidin-coated donor beads (6760002), AlphaLISA unconjugated acceptor beads (6062011), and an AlphaLISA universal buffer (AL001F), a 96-well half-area white plate (6005560, Perkin Elmer), and a detection device EnSpire Alpha 2300 Mutilabel plate reader (Perkin Elmer). Specifically, the EV detection was performed as follows. Each well of the plate was filled with 5 μL of EVs or 10 μL of CM (cell culture supernatant), 10 μL of a 5 nmol/L biotinylated antibody solution prepared using the above-described buffer, and 10 μL of 50 µg/mL AlphaLISA acceptor bead-conjugated antibody. […] Next, luminescence in the wells of the plate was measured using the detection device with the excitation wavelength set to 680 nm and the emission detection wavelength set to 615 nm. […]
# (§6) In a 6-well plate, 2 mL of the cancer cell suspension was seeded at 1.0×10^5 cells/well and incubated for 24 hours. […] 48 hours after the replacement, total RNA was extracted, and the expression of the gene of interest was measured by qPCR.
# (§7) Colorectal cancer cells HCT116 and lung cancer cells A549 were each transfected with miR-891b. […] Then, according to the ExoScreen method described above, the amounts of the secreted EVs were measured by measuring the signal intensities. […]
# lung cancer cells A549 [4] = test: Amount of secreted EVs by the ExoScreen method; assay type: cell-based, human; details: A549 transformants, CMs and EV fractions, compared with transformants (NC)
# Method: as §5, §6, §7
# [5] = test system: 3′ UTR of the human PSAT1 mRNA; test: Dual-Luciferase reporter assay with PSAT1 3′ UTR in HEK293 cells; assay type: cell-based; details: 48 hours after transfection
# Method: Thus, the effect of miR-891b was examined using the wild-type PSAT1 gene in which the above-described 7-base region in the 3′ UTR is the wild-type sequence (SEQ ID NO: 3: AAGTTGC) and a mutant-type PSAT1 gene in which the above-described 7-base region in the 3′ UTR is a mutated sequence (SEQ ID NO: 4: TTCAACG). Specifically, the following experiment was performed. The wild-type PSAT1 gene or the mutant-type PSAT1 gene was subcloned into a plasmid vector psiCHECK2, and human embryonic kidney cells (HEK293 cells) were transfected with this recombinant vector together with miR-891b or the negative control miRNA using Lipofectamine 3000. 48 hours after the transfection, the luciferase activity of the transformants was quantified using a plate reader according to the operating procedure of a Dual-Luciferase Reporter Assay System.
# The results obtained are shown in (D) of FIG. 3.
# PSAT1 = PSAT1 gene (qPCR) and protein (Western blotting) expression in transformants; assay type: cell-based, human; details: HCT116 and A549 transformants
# Method: In a 6-well plate, 2 mL of the cancer cell suspension was seeded at 1.0×10^5 cells/well and incubated for 24 hours. Thereafter, 10 nmol/L of the intended nucleic acid molecules were added thereto, and the cells were transfected with the nucleic acid molecules using a transfection reagent (product name: DharmaFECT Transfection Reagent 1). The nucleic acid molecules used were the above-described miRNA and the above-described siRNA. After the incubation for 24 hours, the medium was replaced with the above-described advanced RPMI 1640 medium or advanced DMEM medium containing the antibiotic-antimycotic agent and 2 mmol/L-glutamine (Gibco). 48 hours after the replacement, total RNA was extracted, and the expression of the gene of interest was measured by qPCR. […]
# First, expression of the PSAT1 gene was detected in the above-described transformants (miR-891b) and the control transformants (NC) therefor. Then, assuming that the expression levels in the transformants (NC) were 1, the relative values of the expression levels in the respective transformants (miR-891b) were determined. […] Also, for the transformants (miR-891b) and the control transformants (NC), the PSAT1 protein expression was detected by Western blotting. As a control, β-actin was also detected. […]
substance,measurement,setting,value
"miR-891b: nucleic acid molecule miRNA, SEQ ID NO: 1: GCAACUUACCUGAGUCAUUGA (Product No. 4464066, Ambion) (listed as RNA, chemistry not given here)",CD63 (EV marker) in cytoplasm by immunofluorescence,[1],accumulation of CD63
same,CD63 (EV marker) in cytoplasm by immunofluorescence,lung cancer cells A549 [2],accumulation of CD63
same,relative value of the amount of secreted EVs (ExoScreen method),[3],significantly lower
same,relative value of the amount of secreted EVs (ExoScreen method),lung cancer cells A549 [4],significantly lower
same,PSAT1 expression level (relative luciferase activity),[5]; mutated sequence in miR-891b recognition region,did not reduce
same,PSAT1 expression level (relative luciferase activity),[5]; wild-type PSAT1 3′ UTR sequence,significantly reduced
same,PSAT1 protein expression,"PSAT1; Western blotting, vs transformants (NC)",reduced
same,PSAT1 gene expression,PSAT1; relative to transformants (NC),reduced
